Values joined by “and” are separate entries in the source; they are usually repeats but may differ in a detail not shown here. Equal entries are not always repeated.
Test system: HSSY-II complex spheroid growth, percent test/control
Experiment: Anticancer human tumor HSSY-II cell line growth inhibition [Asc];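 further: spheroids exposed to drug for 7 days before reading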
Settings: for viability, T/C: stronger effect = lower value; active means viability on the fitted dose curve at most 10% of control; inactive means the rest
Description: Multicellular complex tumor spheroid response to apoptosis pathway targeting inhibitors Alrizomadlin, Pelcitoclax, and Dasminapant in combination with a variety of drugs and investigational agents in selected tumor cell lines
The MDM2 inhibitor alrizomadlin, the Bcl-2/Bcl-xL inhibitor pelcitoclax, and the IAPs inhibitor dasminapant were evaluated both individually and in combination with standard of care and investigational anticancer small molecules within a complex spheroid model of solid tumors. . Complex spheroids include a stromal component modeled by human endothelial cells (HUVEC) and fibroblasts modeled by human mesenchymal stem cells (MSCs). The concentration ranges selected for each drug and investigational agent were based upon clinically achievable concentrations if the clinical Cmax of the agent was known.
Compounds. The drugs and investigational agents: alrizomadlin (APG-115; NSC831270), pelcitoclax (APG-1252; NSC835773), dasminapant (APG-1387;NSC834197), TAK-243 (NSC785004), copanlisib (NSC809693), olaparib (NSC753686), talazoparib (NSC767125), cobimetinib (NSC 768068), eltanexor (KPT-8602, NSC 794443), abemaciclib (NSC 768073), sotorasib (NSC818433), adagrasib (NSC 831453), MRTX-1133 (NSC 836407), Iadademestat (ORY1001, NSC 806812), and RMC-4630 (NSC839698), were obtained from the NCI Developmental Therapeutics Program Chemical Repository. The FDA-approved anticancer drug set is available from the Developmental Therapeutics Program at https://dtp.cancer.gov/organization/dscb/obtaining/available plates.htm. […] The stock solutions were prepared in dimethyl sulfoxide (DMSO, Sigma-Aldrich, St. Louis, MO, cat. D2650) at 800-fold the tested concentration and stored at -70 degrees C prior to their use. All drugs and investigational agents were tested over a range starting from a high concentration at or near the clinical Cmax and decreasing in half-log increments. If the clinical Cmax for an agent had not been determined, the highest concentration tested was 10 microM.
The patient-derived cancer (PDC) cell lines include five colon adenocarcinomas: 186277-243-T-J2-PDC, 616215-338-R-J1-PDC, 439559-082-T-J2-PDC, 463943-066-T-J2-PDC, and 519858-162-T-J1-PDC; three pancreatic carcinomas: 323965-272-R-J2-PDC, 521955-158-R6-J3-PDC, and 521955-158-R2-J5-PDC; two uterine sarcomas: 327498-152-R-J2-PDC and 993429-296-R-J1-PDC; two rhabdomyosarcomas: 755483-174-R-J1-PDC and 772245-204-R-J1-PDC; two soft tissue sarcomas: 126254-015-R-J1-PDC and 494315-158-R-J1-PDC; two malignant fibrous histiocytomas: 317291-083-R-J1-PDC and 596521-263-R-J1-PDC; two breast carcinomas: 171881-019-R-J1-PDC and 885512-296-R-J2-PDC; and one ovarian carcinoma: 6556581-035-R-J-PDC were obtained from the NCI PDMR, (https://pdmr.cancer.gov). The established cell lines HSSY-2 synovial sarcoma (RRID:CVCL 8719), SYO-1 synovial sarcoma (RRID:CVCL_7146), MPNST malignant peripheral neural sheath tumor were obtained from the Sloan Kettering Institute. The following established cell lines were purchased from the American Type Culture Collection (ATCC, Manassas, VA), Sor the received from the NCI repository:, PANC-1 pancreatic carcinoma (CRL-1469, RRID:CVCL_0480), OVCAR-5 ovarian carcinoma (RRID:CVCL_1628), OVCAR-8 ovarian carcinoma (RRID:CVCL_1629), , MCF-7 breast carcinoma (CRL-12584, RRID:CVCL_0031), MDA-MB-231 breast carcinoma (CRL-12532, RRID:CVCL_0062), NCI-H1876 small cell lung carcinoma (CRL-5902, RRID:CVCL_1503), NCI-H510A small cell lung carcinoma (HTB-184, RRID:CVCL_1565), NCI-H1417 (CRL-5869, RRID:CVCL_1469), and NCI-H196 small cell lung carcinoma (CRL-5823, RRID:CVCL_1509). Dr. Peter Houghton (Greehey Children's Cancer Research Institute, University of Texas Health Science Center, San Antonio, TX) provided Rh-18 rhabdomyosarcoma (RRID:CVCL_1659). Pooled donor human umbilical vein endothelial cells (HUVEC, Lonza, cat. CC-2519) and human mesenchymal stem cells (hMSC, Lonza, cat. PT-2501) were purchased from Lonza (Walkersville, MD).
Cell Culture. […]

[1] = curve of first compound, second compound 0.1 µM
[2] = curve of first compound, second compound 0.316 µM
[3] = curve of first compound, second compound 1 µM
[4] = curve of first compound, second compound 3.16 µM
[5] = curve of first compound, second compound 10 µM

CCN1CCN(Cc2ccc(Nc3ncc(F)c(-c4cc(F)c5nc(C)n(C(C)C)c5c4)n3)nc2)CC1 + Cc1c(S(C)(=O)=O)c(-c2cc(F)cc(N3CCN(c4ccc(NS(=O)(=O)c5ccc(NC(CCN6CCC(C(=O)OCCCP(=O)(O)O)CC6)CSc6ccccc6)c(S(=O)(=O)C(F)(F)F)c5)cc4)CC3)c2)c(-c2ccc(Cl)cc2)n1C(C)C
69.9 nM: IC50 [5]
inactive: viability, T/C (second compound 0.1 µM, first compound 0.00316 µM) 90.8% | viability, T/C (second compound 0.1 µM, first compound 0.01 µM) 105% | viability, T/C (second compound 0.1 µM, first compound 0.0316 µM) 71.5% | viability, T/C (second compound 0.1 µM, first compound 0.1 µM) 68.5% | viability, T/C (second compound 0.1 µM, first compound 0.316 µM) 47.5% | viability, T/C (second compound 0.1 µM, first compound 1 µM) 26.7% | viability, T/C (second compound 0.316 µM, first compound 0.00316 µM) 92.4% | viability, T/C (second compound 0.316 µM, first compound 0.01 µM) 88.2% | viability, T/C (second compound 0.316 µM, first compound 0.0316 µM) 75.6% | viability, T/C (second compound 0.316 µM, first compound 0.1 µM) 52.8% | viability, T/C (second compound 0.316 µM, first compound 0.316 µM) 40% | viability, T/C (second compound 0.316 µM, first compound 1 µM) 20.7% | viability, T/C (second compound 1 µM, first compound 0.00316 µM) 94.7% | viability, T/C (second compound 1 µM, first compound 0.01 µM) 83.1% | viability, T/C (second compound 1 µM, first compound 0.0316 µM) 70% | viability, T/C (second compound 1 µM, first compound 0.1 µM) 57.6% | viability, T/C (second compound 1 µM, first compound 0.316 µM) 34.8% | viability, T/C (second compound 1 µM, first compound 1 µM) 24.9% | viability, T/C (second compound 3.16 µM, first compound 0.00316 µM) 80.9% | viability, T/C (second compound 3.16 µM, first compound 0.01 µM) 91.8% | viability, T/C (second compound 3.16 µM, first compound 0.0316 µM) 74.2% | viability, T/C (second compound 3.16 µM, first compound 0.1 µM) 49% | viability, T/C (second compound 3.16 µM, first compound 0.316 µM) 38.2% | viability, T/C (second compound 3.16 µM, first compound 1 µM) 23.1% | viability, T/C (second compound 10 µM, first compound 0.00316 µM) 83.9% | viability, T/C (second compound 10 µM, first compound 0.01 µM) 81.3% | viability, T/C (second compound 10 µM, first compound 0.0316 µM) 60.7% | viability, T/C (second compound 10 µM, first compound 0.1 µM) 41.6% | viability, T/C (second compound 10 µM, first compound 0.316 µM) 40.3% | viability, T/C (second compound 10 µM, first compound 1 µM) 24.9%
146 nM: IC50 [2]
135 nM: IC50 [3]
259 nM: IC50 [1]
112 nM: IC50 [4]

CCN1C(C(=O)NC23CCC(C(=O)O)(CC2)CC3)C(c2cccc(Cl)c2F)C2(C(=O)Nc3cc(Cl)ccc32)C12CCCCC2 (configuration not stated) + Cc1c(S(C)(=O)=O)c(-c2cc(F)cc(N3CCN(c4ccc(NS(=O)(=O)c5ccc(NC(CCN6CCC(C(=O)OCCCP(=O)(O)O)CC6)CSc6ccccc6)c(S(=O)(=O)C(F)(F)F)c5)cc4)CC3)c2)c(-c2ccc(Cl)cc2)n1C(C)C
54.2 nM: IC50 [4]
59.4 nM: IC50 [2]
inactive: viability, T/C (second compound 0.1 µM, first compound 0.00949 µM) 106% | viability, T/C (second compound 0.1 µM, first compound 0.03 µM) 92.7% | viability, T/C (second compound 0.1 µM, first compound 0.0949 µM) 49.4% | viability, T/C (second compound 0.1 µM, first compound 0.3 µM) 19.4% | viability, T/C (second compound 0.316 µM, first compound 0.00949 µM) 102% | viability, T/C (second compound 0.316 µM, first compound 0.03 µM) 78.1% | viability, T/C (second compound 0.316 µM, first compound 0.0949 µM) 29.7% | viability, T/C (second compound 1 µM, first compound 0.00949 µM) 104% | viability, T/C (second compound 1 µM, first compound 0.03 µM) 84.6% | viability, T/C (second compound 1 µM, first compound 0.0949 µM) 47.4% | viability, T/C (second compound 1 µM, first compound 0.3 µM) 9.68% | viability, T/C (second compound 3.16 µM, first compound 0.00949 µM) 94.3% | viability, T/C (second compound 3.16 µM, first compound 0.03 µM) 73.3% | viability, T/C (second compound 3.16 µM, first compound 0.0949 µM) 28% | viability, T/C (second compound 10 µM, first compound 0.00949 µM) 92.8% | viability, T/C (second compound 10 µM, first compound 0.03 µM) 73.6% | viability, T/C (second compound 10 µM, first compound 0.0949 µM) 27.2%
100 nM: IC50 [1]
83.5 nM: IC50 [3]
active: viability, T/C (second compound 0.1 µM, first compound 0.949 µM) 3.79% | viability, T/C (second compound 0.1 µM, first compound 3 µM) 0.58% | viability, T/C (second compound 0.316 µM, first compound 0.3 µM) 11.1% | viability, T/C (second compound 0.316 µM, first compound 0.949 µM) 3.4% | viability, T/C (second compound 0.316 µM, first compound 3 µM) 0.3% | viability, T/C (second compound 1 µM, first compound 0.949 µM) 1.67% | viability, T/C (second compound 1 µM, first compound 3 µM) 0.19% | viability, T/C (second compound 3.16 µM, first compound 0.3 µM) 4.69% | viability, T/C (second compound 3.16 µM, first compound 0.949 µM) 1.19% | viability, T/C (second compound 3.16 µM, first compound 3 µM) 0.17% | viability, T/C (second compound 10 µM, first compound 0.3 µM) 4.78% | viability, T/C (second compound 10 µM, first compound 0.949 µM) 1.16% | viability, T/C (second compound 10 µM, first compound 3 µM) 0.26%
53.9 nM: IC50 [5]

C=C(F)C(=O)N1CCN(c2nc(OCC3CCCN3C)nc3c2CCN(c2cccc4cccc(Cl)c24)C3)CC1CC#N (configuration not stated)
inactive: viability, T/C (compound 0.0316 µM) 102% and 104% and 97.2% | viability, T/C (compound 0.1 µM) 100% and 111% and 98.8% | viability, T/C (compound 0.316 µM) 89.8% and 89.1% and 90.5% | viability, T/C (compound 1 µM) 70.2% and 80.1% and 70%
1430 nM and 1580 nM and 1410 nM: IC50 (curve of compound)
active: viability, T/C (compound 3.16 µM) 5.2% and 4.65% and 3.69% | viability, T/C (compound 10 µM) 0.22% and 0.2% and 0.21%

— PubChem BioAssay AID1963444 (Molecular Pharmacology Branch, DTP, NCI, 2024)
